The values below come from PMC5716189, “Characterization of the APLF FHA–XRCC1 phosphopeptide interaction and its structural and functional implications” (Nucleic Acids Research, 2017).

The structures appear in SMILES notation. Square brackets hold non-standard residues; d marks the D form. Peptide text beside a SMILES is read from it. pT = C[C@@H](OP(=O)(O)O)[C@H](N)C(=O)O; pS = N[C@@H](COP(=O)(O)O)C(=O)O

In this test the target is T1, APLF FHA domain (Homo sapiens, UniProt Q8IW19).
T1 construct: His6 (N, cleaved yes); TEV cleavage site (N, cleaved yes); made in house; host or cells: Escherichia coli Rosetta2 (DE3)
T1 sequence (Q8IW19 1-108 limits assumed): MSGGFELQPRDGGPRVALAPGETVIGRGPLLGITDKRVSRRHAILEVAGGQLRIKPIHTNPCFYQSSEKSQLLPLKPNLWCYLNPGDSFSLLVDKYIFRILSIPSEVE
Kind of test: 1H,15N-HSQC NMR phosphopeptide titration. The note with it: pH 7.4, 0.1 mM U-[15N] APLF FHA, 25 mM HEPES, 25 mM MES, 150 mM NaCl, 1 mM EDTA, 35°C. The test is classed as binding. How it is done: All NMR experiments were performed at 35°C on a Varian INOVA 500 MHz spectrometer equipped with a triple-resonance, pulsed-field gradient cryo-probe, with the exception of the ^31P experiments, which were collected on an Agilent/Varian DD2 600 MHz spectrometer equipped with a heteronuclear broadband probe. The backbone chemical shift assignments were made from 3D HNCACB, CBCA(CO)NH, HNCA, HN(CO)CA, HNCO and HN(CA)CO experiments that were obtained using Agilent BioPack pulse sequences (Agilent). The 3D experiments were acquired with non-uniform sampling to speed up the data acquisition ([36],[37]). Since several of the amide resonances were broadened as a result of the intermediate amide proton exchange dynamics at pH 7.4, a low pH buffer, 25 mM sodium citrate, 50 mM NaCl, and 1 mM EDTA, pH 5.5, was used for the amide backbone assignments. For phosphopeptide titration experiments, 2D ^1H,^15N-HSQC spectra were acquired on a sample containing 0.1 mM U-[^15N] APLF-FHA in 25 mM HEPES, 25 mM MES, 150 mM NaCl, 1 mM EDTA, pH 7.4 as a function of phosphopeptide concentration. The interaction of sodium phosphate, sodium sulfate, and sodium ethylsulfate with U-[^15N] APLF FHA sample was also studied by monitoring the ^1H,^15N-HSQC spectrum of the labeled protein as a function of the anion concentration. The volume of peptide or anion added never exceeded more than 10% of the total volume.

Broadly, the Kd is the free concentration of one partner at which half of the binding sites on the other are occupied at equilibrium, for simple one-to-one binding. A high value points to lower affinity.

The compound `C[C@H](NC(=O)[C@H](Cc1ccc(O)cc1)NC(=O)[C@@H]1CCCN1)C(=O)NCC(=O)N[C@@H](COP(=O)(O)O)C(=O)N[C@H](C(=O)N[C@@H](CC(=O)O)C(=O)N[C@@H](CCC(=O)O)C(=O)N[C@@H](CC(N)=O)C(=O)O)[C@@H](C)OP(=O)(O)O` [XRCC1pSpT-9] (H-PYAG[pS][pT]DEN-OH) showed a Kd of 80 µM.
